Test system: chronic stomatitis
Assay: Effectiveness of glutathione in treatment of cat stomatitis
Type: in vivo
[1] = one cat with AIDS and serious chronic stomatitis, 30 mg/kg per day mixed in the feed for two weeks

N[C@@H](CCC(=O)N[C@@H](CS)C(=O)NCC(=O)O)C(=O)O [reduced glutathione, gamma-L-Glu-L-Cys-Gly]
appetite [1]: improved | fauces erosion and gum inflammation [1]: dramatic improvements

interferon [reference compound]
improvement of chronic stomatitis (same cat, nearly 10 years of treatment before the glutathione): no improvement

Source: patent US8067537B2, “Composition and method for treatment of stomatitis” (Kyowa Hakko Bio Co., Ltd., priority 2004, dated 2011)
